{
  "source": "patent US20260328779A1",
  "about": "“METHODS AND COMPOSITIONS FOR THE DIAGNOSIS AND TREATMENT OF IGA NEPHROPATHY” (Beth Israel Deaconess Medical Center, Inc., priority 2022, published 2026)",
  "key": {"anti-Tn IgM": {"system": "anti-Tn IgM", "assay": "Inhibition of anti-Tn antibody binding to Tn glycopeptide array", "set-up": "species or system human", "details": "glycomimetic 20 mM, 30 min at RT, anti-Tn antibodies C3", "protocol": "The Tn glycopeptide microarray was prepared as previously described^77. Briefly, the glycopeptides printed on the microarray is as listed (FIG. 2). Purified anti-Tn antibodies (diluted to […] for IgM, and […] for IgG and IgA detection) in TSM binding buffer (20 mM Tris-HCl, pH 7.4, 150 mM NaCl, 2 mM CaCl2), 2 mM MgCl2, with 1% BSA and 0.05% Tween-20) were added to the respective array slides for 1 h at RT. Alexa Fluor #488-labeled goat anti-human IgM or goat anti-human IgG, or FITC-labeled goat anti-human IgA antibody at 1:400 dilution in TSM binding buffer was used for detection of IgM, IgG, and IgA within purified anti-Tn antibodies. Slides were analyzed on a Genepix^# 4300A microarray scanner (Molecular Devices). Images were analyzed with quantitation software (GenePix® Pro Microarray Analysis Software Ver. 7, Molecular Devices). For inhibition assay, a purified Tn(+)IgA1 produced from CosmcKO Dakiki cells was utilized (See Generation of CosmcKO Dakiki cells using CRISPR-Cas9 system for generating the antibody) to inhibit anti-Tn antibodies binding to microarray and Tn(−)IgA1 produced from Dakiki cells as a […]. Purified anti-Tn antibodies (Cl, 10 mg/ml) in TSM binding buffer was preincubated with 1 mg of purified Tn(+)IgA1, or Tn(−)IgA1 for 30 min at RT. […] Heat map and correlation map of binding preferences were analyzed using GLAD (Glycan Array Dashboard)."}, "anti-Tn CICs": {"system": "anti-Tn CICs", "assay": "ELISA based glycomimetic inhibition assay (anti-Tn CICs binding to IgA1 glycopeptide)", "set-up": "species or system human", "details": "ID18 with ID19 as baseline, serial dilution (1/3) starting at 10 mM", "protocol": "IgA1 glycopeptides (ID18, or ID19 as listed in FIG. 2, 0.01 mg/well) were immobilized using immobilization buffer (NaHCO3/Na2CO3, pH 9.6) in a 96-well plate (Thermo Fisher Scientific, PolySorp) overnight at 4° C. The plate was washed 3× with TSM containing 0.05% tween-20 (TSMT) and added 5% (w/v) BSA in TSMT for 1 h at RT. The plate was incubated with 1 mg/ml of purified anti-Tn CICs from IgAN serum (P3, and pooled with P1-P10; Pmix) or healthy donors (C3, and pooled C1-C10; Cmix) in TSMT containing 0.5% BSA for 1 h at RT. The plate was washed 3× with TSMT and incubated for 1 h with HRP-conjugated goat anti-human IgM at 1:1,000 dilution in TSMT containing 0.5% BSA at RT. The plate was washed 3× with TSMT and developed using TMB substrate solution (Cat #ab171523, Abcam) for 30 min, and the reaction was stopped with 1N HCl. Absorbance (450 nm) was read on an ImageXpress #Pico (Molecular Devices). The half-maximal inhibitory concentration (IC50) was calculated with GraphPad Prism 6.0 (GraphPad Software, Inc.) after subtraction from ID19 as a baseline. For inhibition assay, purified anti-Tn CICs were preincubated with a serial dilution (1/3) of α-methylGalNAc or DiαGalNAc (starting at 10 mM) for 30 min at RT."}, "[1]": {"system": "primary human renal mesangial cells", "assay": "Inhibition of anti-Tn CICs-stimulated mesangial cell proliferation (Ki-67)", "assay_type": "cell-based", "details": "anti-Tn CICs purified from IgAN patients pretreated with 100 mM compound, 30 min at RT", "protocol": "[…] of serum was mixed with […] of Tn(+)matrix beads or mock beads overnight at 4° C. (10 rpm). Supernatant was collected after pelleting the beads at 500×g for 30 sec at 4° C. After two rounds of such sequential anti-Tn CICs immunodepletion (serum-ID) and its control (serum-Mock), collected serum was filtered by syringe filter unit (Cat #SLHP033RS, Millipore Sigma) before use. Cells were cultured at ~90% confluency in 96-well plate, and starved in Mesangial cell media (Cat #4201) with 0.5% FBS (Cat #0010) and 0.05× mesangial cell growth supplement (MsCGS, Cat #4252) from ScienCell for 24 h at 37° C. prior to stimulation. Cells were stimulated with 5% serum-Mock, 5% serum-ID with or without exogenous anti-Tn CICs (50 ng/[…]/well, total) for 24 h at 37° C. incubator. Cells were fixed with 4% PFA with 0.05% Triton-X-100 in PBS for 20 min at 4° C. Fixed cells were blocked with 5% (vol/vol) goat serum in PBS for 1 h at 4° C., and incubated with anti-Ki-67 antibody (SP6, rabbit IgG, Cat #CRM325B, Biocare Medical, diluted to 1:50) in PBS for 1 h at 4° C. Cells were washed 3× with chilled PBS, and incubated with Alexa Fluor #488-goat anti-rabbit IgG (Cat #A27034, Thermo Fisher Scientific) at 1:400 in PBS for 1 h at 4° C. in the dark. Cells were washed 3× with chilled PBS, and stained with DAPI (diluted to 0.1 mM) in PBS for 10 min at RT, and analyzed using a microscope (AMG EVOS FL digital inverted microscope, Fisher Scientific, ×400 magnification). For inhibition assay, anti-Tn CICs was preincubated with 100 mM α-methylGalNAc, or α-methylGlcNAc in PBS for 30 min at RT. Serum from three healthy controls (C3, C6, and pooled C1-C10; Cmix) and three IgAN (P5, P10, and pooled P1-P10; Pmix) were used in this assay. […] of serum with IgAN (P1-P20) or healthy control (C1-C20) was analyzed on SDS-PAGE gel, and stained with Coomassie."}},
  "data": [
    {"compound": "CC(=O)N[C@H]1[C@@H](OCCSCCO[C@H]2O[C@H](CO)[C@H](O)[C@H](O)[C@H]2NC(C)=O)O[C@H](CO)[C@H](O)[C@@H]1O", "note": "[DiαGalNAc, α-D-2-Ethylthio 2-acetamido-galactopyranosyl α-D-2-Ethylthio 2-acetamido-galactopyranoside]", "values": [
      {"measurement": "inhibition of anti-Tn antibody (IgM) binding to Tn glycopeptide array", "setting": "anti-Tn IgM", "result": "higher inhibition compared to α-methylGalNAc"},
      {"measurement": "inhibition of anti-Tn CICs binding to IgA1 glycopeptide", "setting": "anti-Tn CICs", "result": "A higher inhibition of anti-Tn CICs binding"},
      {"measurement": "inhibition of anti-Tn CICs binding to IgA1 glycopeptide", "setting": "anti-Tn CICs; listed as Di αGalNAc", "result": "specifically inhibits the binding of anti-Tn CICs to IgA1 glycopeptide"}
    ]},
    {"compound": "CO[C@H]1O[C@H](CO)[C@@H](O)[C@H](O)[C@H]1NC(C)=O", "note": "[α-methylGlcNAc, reference compound]", "values": [
      {"measurement": "inhibition of proliferative activity of anti-Tn CICs from IgAN patients toward mesangial cells", "setting": "[1]", "result": "did not inhibit the mesangial cell proliferation"}
    ]}
  ]
}
